System: 233499-124-R-J3-PDC spheroids with HUVEC/MSC, viability
Assay: Anticancer human tumor 233499-124-R-J3-PDC patient-derived colon adenocarcinoma cell line growth inhibition [PI3K]
Settings: for IC50: curve of first compound; for viability, T/C: stronger effect = lower value
Method in brief: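 Tumor cells grown as multi-cell spheroids with HUVEC endothelial cells and MSC fibroblast-like stroma were treated with targeted agents combined with inavolisib, alpelisib, duvelisib or copanlisib. Doses fell in half-log steps from near clinical Cmax, else from 10 microM. Viability was measured.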

[1] = second compound 0.0316 µM, first compound 0.0316 µM
[2] = second compound 0.0316 µM, first compound 0.1 µM
[3] = second compound 0.0316 µM, first compound 0.316 µM
[4] = second compound 0.0316 µM, first compound 1 µM
[5] = second compound 0.0316 µM, first compound 3.16 µM
[6] = second compound 0.0316 µM, first compound 10 µM
[7] = second compound 0.1 µM, first compound 0.0316 µM
[8] = second compound 0.1 µM, first compound 0.1 µM
[9] = second compound 0.1 µM, first compound 0.316 µM
[10] = second compound 0.1 µM, first compound 1 µM
[11] = second compound 0.1 µM, first compound 3.16 µM
[12] = second compound 0.1 µM, first compound 10 µM
[13] = second compound 0.316 µM, first compound 0.0316 µM
[14] = second compound 0.316 µM, first compound 0.1 µM
[15] = second compound 0.316 µM, first compound 0.316 µM
[16] = second compound 0.316 µM, first compound 1 µM
[17] = second compound 0.316 µM, first compound 3.16 µM
[18] = second compound 0.316 µM, first compound 10 µM
[19] = second compound 1 µM, first compound 0.0316 µM
[20] = second compound 1 µM, first compound 0.1 µM
[21] = second compound 1 µM, first compound 0.316 µM
[22] = second compound 1 µM, first compound 1 µM
[23] = second compound 1 µM, first compound 3.16 µM
[24] = second compound 1 µM, first compound 10 µM
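Further: spheroids exposed to agents for seven days before readout.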
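Wherever viability, T/C is given: percent viability relative to DMSO vehicle control taken as 100%.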

`Cn1nccc1Nc1nccc(-c2ccn(C(CO)c3ccc(Cl)c(F)c3)c(=O)c2)n1` (stereo unspecified) + COc1c(OCCCN2CCOCC2)ccc2c3n(c(=NC(=O)c4cnc(N)nc4)nc12)CCN3 was tested, and the IC50 (second compound 0.00316 µM) was > 10000 nM, the IC50 (second compound 0.01 µM) was > 10000 nM and the IC50 (second compound 0.0316 µM) was > 10000 nM. The IC50 (second compound 0.1 µM) was 791 nM, the IC50 (second compound 0.316 µM) was < 31.6 nM and the IC50 (second compound 1 µM) was < 31.6 nM. For the same molecule, the viability, T/C (second compound 0.00316 µM, first compound 0.0316 µM) was 90.5%, the viability, T/C (second compound 0.00316 µM, first compound 0.1 µM) was 86.6% and the viability, T/C (second compound 0.00316 µM, first compound 0.316 µM) was 86.4%. It also gave a viability, T/C (second compound 0.00316 µM, first compound 1 µM) of 91.4%, a viability, T/C (second compound 0.00316 µM, first compound 3.16 µM) of 80.1% and a viability, T/C (second compound 0.00316 µM, first compound 10 µM) of 70.1%. It also gave a viability, T/C (second compound 0.01 µM, first compound 0.0316 µM) of 90%, a viability, T/C (second compound 0.01 µM, first compound 0.1 µM) of 78.2% and a viability, T/C (second compound 0.01 µM, first compound 0.316 µM) of 67.7%. It also gave a viability, T/C (second compound 0.01 µM, first compound 1 µM) of 78.3%, a viability, T/C (second compound 0.01 µM, first compound 3.16 µM) of 67% and a viability, T/C (second compound 0.01 µM, first compound 10 µM) of 56.3%. The viability, T/C [1] was 92.1%, the viability, T/C [2] was 75.9% and the viability, T/C [3] was 70.6%. It also gave a viability, T/C [4] of 65.9%, a viability, T/C [5] of 53.7% and a viability, T/C [6] of 54.3%. The viability, T/C [7] was 84.9%, the viability, T/C [8] was 72% and the viability, T/C [9] was 58.4%. For the same molecule, the viability, T/C [10] was 46.2%, the viability, T/C [11] was 40.3% and the viability, T/C [12] was 24.4%. For the same molecule, the viability, T/C [13] was 20.4%, the viability, T/C [14] was 37.7% and the viability, T/C [15] was 27.1%. For the same molecule, the viability, T/C [16] was 14.2%, the viability, T/C [17] was 12% and the viability, T/C [18] was 9.88%. It also gave a viability, T/C [19] of 5.63%, a viability, T/C [20] of 5.4% and a viability, T/C [21] of 6.24%. It also gave a viability, T/C [22] of 5.85%, a viability, T/C [23] of 2.1% and a viability, T/C [24] of 1.53%.

For `C#Cc1c(F)ccc2cc(O)cc(-c3ncc4c(N5CC6CCC(C5)N6)nc(OCC56CCCN5CC(F)C6)nc4c3F)c12` (stereo unspecified) + Cc1nc(NC(=O)N2CCCC2C(N)=O)sc1-c1ccnc(C(C)(C)C(F)(F)F)c1, the IC50 (second compound 0.0316 µM) was > 10000 nM, the IC50 (second compound 0.1 µM) was > 10000 nM and the IC50 (second compound 0.316 µM) was > 10000 nM. For the same molecule, the IC50 (second compound 1 µM) was 5780 nM, the IC50 (second compound 3.16 µM) was 807 nM and the IC50 (second compound 10 µM) was < 31.6 nM. The viability, T/C [1] was 91.5%, the viability, T/C [2] was 98.2% and the viability, T/C [3] was 79.3%. For the same molecule, the viability, T/C [4] was 89.2%, the viability, T/C [5] was 81.2% and the viability, T/C [6] was 84.5%. For the same molecule, the viability, T/C [7] was 108%, the viability, T/C [8] was 107% and the viability, T/C [9] was 91.4%. The viability, T/C [10] was 77.7%, the viability, T/C [11] was 81% and the viability, T/C [12] was 104%. It also gave a viability, T/C [13] of 88.7%, a viability, T/C [14] of 83% and a viability, T/C [15] of 83%. It also gave a viability, T/C [16] of 77.1%, a viability, T/C [17] of 50.9% and a viability, T/C [18] of 82.4%. It also gave a viability, T/C [19] of 77.1%, a viability, T/C [20] of 54.9% and a viability, T/C [21] of 83.4%. For the same molecule, the viability, T/C [22] was 64.4%, the viability, T/C [23] was 64.3% and the viability, T/C [24] was 37.7%. It also gave a viability, T/C (second compound 3.16 µM, first compound 0.0316 µM) of 65.3%, a viability, T/C (second compound 3.16 µM, first compound 0.1 µM) of 72% and a viability, T/C (second compound 3.16 µM, first compound 0.316 µM) of 67%. It also gave a viability, T/C (second compound 3.16 µM, first compound 1 µM) of 43.6%, a viability, T/C (second compound 3.16 µM, first compound 3.16 µM) of 33.6% and a viability, T/C (second compound 3.16 µM, first compound 10 µM) of 61.2%. For the same molecule, the viability, T/C (second compound 10 µM, first compound 0.0316 µM) was 30.5%, the viability, T/C (second compound 10 µM, first compound 0.1 µM) was 39% and the viability, T/C (second compound 10 µM, first compound 0.316 µM) was 16.3%. It also gave a viability, T/C (second compound 10 µM, first compound 1 µM) of 26.1%, a viability, T/C (second compound 10 µM, first compound 3.16 µM) of 12.4% and a viability, T/C (second compound 10 µM, first compound 10 µM) of 4.04%.

With `Cn1cnc2c(F)c(Nc3ccc(Br)cc3Cl)c(C(=O)NOCCO)cc21` + CC(Nc1ncnc2nc[nH]c12)c1cc2cccc(Cl)c2c(=O)n1-c1ccccc1 the IC50 (second compound 0.0316 µM) was 600 nM, the IC50 (second compound 0.1 µM) was 603 nM and the IC50 (second compound 0.316 µM) was 511 nM. The IC50 (second compound 1 µM) was 281 nM, the IC50 (second compound 3.16 µM) was 275 nM and the IC50 (second compound 10 µM) was 455 nM. It also gave a viability, T/C (second compound 0.0316 µM, first compound 0.00949 µM) of 68.9%, a viability, T/C (second compound 0.0316 µM, first compound 0.03 µM) of 69.2% and a viability, T/C (second compound 0.0316 µM, first compound 0.0949 µM) of 66%. The viability, T/C (second compound 0.0316 µM, first compound 0.3 µM) was 70.9%, the viability, T/C (second compound 0.0316 µM, first compound 0.949 µM) was 37.6% and the viability, T/C (second compound 0.0316 µM, first compound 3 µM) was 28.6%. For the same molecule, the viability, T/C (second compound 0.1 µM, first compound 0.00949 µM) was 83.8%, the viability, T/C (second compound 0.1 µM, first compound 0.03 µM) was 73.6% and the viability, T/C (second compound 0.1 µM, first compound 0.0949 µM) was 64.9%. It also gave a viability, T/C (second compound 0.1 µM, first compound 0.3 µM) of 67.6%, a viability, T/C (second compound 0.1 µM, first compound 0.949 µM) of 40.3% and a viability, T/C (second compound 0.1 µM, first compound 3 µM) of 19.5%. The viability, T/C (second compound 0.316 µM, first compound 0.00949 µM) was 90%, the viability, T/C (second compound 0.316 µM, first compound 0.03 µM) was 76.5% and the viability, T/C (second compound 0.316 µM, first compound 0.0949 µM) was 61.1%. The viability, T/C (second compound 0.316 µM, first compound 0.3 µM) was 64%, the viability, T/C (second compound 0.316 µM, first compound 0.949 µM) was 41% and the viability, T/C (second compound 0.316 µM, first compound 3 µM) was 31%. The viability, T/C (second compound 1 µM, first compound 0.00949 µM) was 96.6%, the viability, T/C (second compound 1 µM, first compound 0.03 µM) was 73.4% and the viability, T/C (second compound 1 µM, first compound 0.0949 µM) was 53%. The viability, T/C (second compound 1 µM, first compound 0.3 µM) was 51.5%, the viability, T/C (second compound 1 µM, first compound 0.949 µM) was 51.7% and the viability, T/C (second compound 1 µM, first compound 3 µM) was 22.4%. The viability, T/C (second compound 3.16 µM, first compound 0.00949 µM) was 76.8%, the viability, T/C (second compound 3.16 µM, first compound 0.03 µM) was 76.2% and the viability, T/C (second compound 3.16 µM, first compound 0.0949 µM) was 64.7%. For the same molecule, the viability, T/C (second compound 3.16 µM, first compound 0.3 µM) was 48.9%, the viability, T/C (second compound 3.16 µM, first compound 0.949 µM) was 40% and the viability, T/C (second compound 3.16 µM, first compound 3 µM) was 37.1%. It also gave a viability, T/C (second compound 10 µM, first compound 0.00949 µM) of 74.6%, a viability, T/C (second compound 10 µM, first compound 0.03 µM) of 52.1% and a viability, T/C (second compound 10 µM, first compound 0.0949 µM) of 72.8%. For the same molecule, the viability, T/C (second compound 10 µM, first compound 0.3 µM) was 50%, the viability, T/C (second compound 10 µM, first compound 0.949 µM) was 43.4% and the viability, T/C (second compound 10 µM, first compound 3 µM) was 25.3%.
